{"source": "patent US12077503B2", "about": "“Substituted cyclic amides and their use as herbicides” (FMC CORPORATION, priority 2015, dated 2024)", "type_in_all_cases": "in vivo", "key": {"corn (Zea mays)": {"system": "corn (Zea mays)", "assay": "Test C preemergence", "conditions": "for Plant response rating, Corn: scale 0 to 100, 0 no effect, 100 complete control", "outline": "(§1)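 Seeds in loam-sand soil treated preemergence, or plants in peat-based medium sprayed postemergence at 2–18 cm (1- to 4-leaf stage), with compound in a non-phytotoxic solvent mixture containing surfactant. Greenhouse-held 13–15 d, then visually rated against controls on a 0–100 scale (0 = no effect, 100 = complete control); dash = not tested.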"}, "[1]": {"system": "lambsquarters (Chenopodium album)", "assay": "Test C preemergence", "conditions": "for Plant response rating, Lambsquarters: scale 0 to 100, 0 no effect, 100 complete control", "outline": "as §1"}, "[2]": {"system": "morningglory (Ipomoea coccinea)", "assay": "Test C preemergence", "conditions": "for Plant response rating, Morningglory: scale 0 to 100, 0 no effect, 100 complete control", "outline": "as §1"}, "[3]": {"system": "crabgrass, large (large crabgrass, Digitaria sanguinalis)", "assay": "Test C preemergence", "conditions": "for Plant response rating, Crabgrass, Large: scale 0 to 100, 0 no effect, 100 complete control", "outline": "as §1"}, "[4]": {"system": "johnsongrass (Sorghum halepense)", "assay": "Test C preemergence", "conditions": "for Plant response rating, Johnsongrass: scale 0 to 100, 0 no effect, 100 complete control", "outline": "as §1"}, "[5]": {"system": "oilseed rape (Brassica napus)", "assay": "Test C preemergence", "conditions": "for Plant response rating, Oilseed Rape: scale 0 to 100, 0 no effect, 100 complete control", "outline": "as §1"}, "[6]": {"system": "ryegrass, Italian (Italian ryegrass, Lolium multiflorum)", "assay": "Test C preemergence", "conditions": "for Plant response rating, Ryegrass, Italian: scale 0 to 100, 0 no effect, 100 complete control", "outline": "as §1"}, "[7]": {"system": "ragweed (common ragweed, Ambrosia elatior)", "assay": "Test C preemergence", "conditions": "for Plant response rating, Ragweed: scale 0 to 100, 0 no effect, 100 complete control", "outline": "as §1"}, "[8]": {"system": "blackgrass (Alopecurus myosuroides)", "assay": "Test C preemergence", "conditions": "for Plant response rating, Blackgrass: scale 0 to 100, 0 no effect, 100 complete control", "outline": "as §1"}, "soybean (Glycine max)": {"system": "soybean (Glycine max)", "assay": "Test C preemergence", "outline": "as §1"}, "[9]": {"system": "Galium (catchweed bedstraw, Galium aparine)", "assay": "Test C preemergence", "conditions": "for Plant response rating, Galium: scale 0 to 100, 0 no effect, 100 complete control", "outline": "as §1"}, "[10]": {"system": "wheat (winter wheat, Triticum aestivum)", "assay": "Test C preemergence", "conditions": "for Plant response rating, Wheat: scale 0 to 100, 0 no effect, 100 complete control", "outline": "as §1"}, "[11]": {"system": "nutsedge, yellow (yellow nutsedge, Cyperus esculentus)", "assay": "Test C preemergence", "conditions": "for Plant response rating, Nutsedge, Yellow: scale 0 to 100, 0 no effect, 100 complete control", "outline": "as §1"}, "[12]": {"system": "velvetleaf (Abutilon theophrasti)", "assay": "Test C preemergence", "conditions": "for Plant response rating, Velvetleaf: scale 0 to 100, 0 no effect, 100 complete control", "outline": "as §1"}, "[13]": {"system": "pigweed (Amaranthus retroflexus)", "assay": "Test C preemergence", "conditions": "for Plant response rating, Pigweed: scale 0 to 100, 0 no effect, 100 complete control", "outline": "as §1"}, "[14]": {"system": "barnyardgrass (Echinochloa crus-galli)", "assay": "Test C preemergence", "conditions": "for Plant response rating, Barnyardgrass: scale 0 to 100, 0 no effect, 100 complete control", "outline": "as §1"}, "[15]": {"system": "waterhemp (common waterhemp, Amaranthus rudis)", "assay": "Test C preemergence", "conditions": "for Plant response rating, Waterhemp: scale 0 to 100, 0 no effect, 100 complete control", "outline": "as §1"}, "[16]": {"system": "sedge, umbrella (small-flower umbrella sedge, Cyperus difformis)", "assay": "Test C flooded paddy test", "conditions": "Flood; for Plant response rating (scale of 0 to 100), Sedge, Umbrella: 0 is no effect, 100 is complete control", "outline": "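Rice, small-flower umbrella sedge, ducksalad and barnyardgrass at the 2-leaf stage were flooded to 3 cm, and compound was applied into the paddy water. After 13 to 15 d in a greenhouse, plants were rated visually against controls on a 0 (no effect) to 100 (complete control) scale.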"}, "[17]": {"conditions": "31 g ai/ha, 0 is no effect, 100 is complete control"}}, "data": [{"smiles": "Cc1ccc(C2CN(C)C(=O)C2C(=O)Nc2ccccc2F)cc1F", "note": "(stereo not shown) [Compound 465]", "values": [{"measurement": "Plant response rating (scale of 0 to 100), Corn", "setting": "corn (Zea mays); [17]", "result": 40}, {"measurement": "Plant response rating, Corn", "setting": "corn (Zea mays); 62 g ai/ha", "result": 55}, {"measurement": "Plant response rating, Corn", "setting": "corn (Zea mays); 125 g ai/ha", "result": 65}, {"measurement": "Plant response rating, Corn", "setting": "corn (Zea mays); 250 g ai/ha", "result": 90}, {"measurement": "Plant response rating (scale of 0 to 100), Lambsquarters", "setting": "[1]; [17]", "result": 75}, {"measurement": "Plant response rating, Lambsquarters", "setting": "[1]; 62 g ai/ha", "result": 75}, {"measurement": "Plant response rating, Lambsquarters", "setting": "[1]; 125 g ai/ha", "result": 85}, {"measurement": "Plant response rating, Lambsquarters", "setting": "[1]; 250 g ai/ha", "result": 100}, {"measurement": "Plant response rating (scale of 0 to 100), Morningglory", "setting": "[2]; [17]", "result": 5}, {"measurement": "Plant response rating, Morningglory", "setting": "[2]; 62 g ai/ha", "result": 20}, {"measurement": "Plant response rating, Morningglory", "setting": "[2]; 125 g ai/ha", "result": 25}, {"measurement": "Plant response rating, Morningglory", "setting": "[2]; 250 g ai/ha", "result": 50}, {"measurement": "Plant response rating (scale of 0 to 100), Crabgrass, Large", "setting": "[3]; [17]", "result": 100}, {"measurement": "Plant response rating, Crabgrass, Large", "setting": "[3]; 62 g ai/ha", "result": 100}, {"measurement": "Plant response rating, Crabgrass, Large", "setting": "[3]; 125 g ai/ha", "result": 100}, {"measurement": "Plant response rating, Crabgrass, Large", "setting": "[3]; 250 g ai/ha", "result": 100}, {"measurement": "Plant response rating (scale of 0 to 100), Johnsongrass", "setting": "[4]; [17]", "result": 10}, {"measurement": "Plant response rating, Johnsongrass", "setting": "[4]; 62 g ai/ha", "result": 65}, {"measurement": "Plant response rating, Johnsongrass", "setting": "[4]; 125 g ai/ha", "result": 80}, {"measurement": "Plant response rating, Johnsongrass", "setting": "[4]; 250 g ai/ha", "result": 85}, {"measurement": "Plant response rating (scale of 0 to 100), Oilseed Rape", "setting": "[5]; [17]", "result": 30}, {"measurement": "Plant response rating, Oilseed Rape", "setting": "[5]; 62 g ai/ha", "result": 10}, {"measurement": "Plant response rating, Oilseed Rape", "setting": "[5]; 125 g ai/ha", "result": 85}, {"measurement": "Plant response rating, Oilseed Rape", "setting": "[5]; 250 g ai/ha", "result": 90}, {"measurement": "Plant response rating (scale of 0 to 100), Ryegrass, Italian", "setting": "[6]; [17]", "result": 10}, {"measurement": "Plant response rating, Ryegrass, Italian", "setting": "[6]; 62 g ai/ha", "result": 70}, {"measurement": "Plant response rating, Ryegrass, Italian", "setting": "[6]; 125 g ai/ha", "result": 65}, {"measurement": "Plant response rating, Ryegrass, Italian", "setting": "[6]; 250 g ai/ha", "result": 65}, {"measurement": "Plant response rating (scale of 0 to 100), Ragweed", "setting": "[7]; [17]", "result": 0}, {"measurement": "Plant response rating, Ragweed", "setting": "[7]; 62 g ai/ha", "result": 60}, {"measurement": "Plant response rating, Ragweed", "setting": "[7]; 125 g ai/ha", "result": 75}, {"measurement": "Plant response rating, Ragweed", "setting": "[7]; 250 g ai/ha", "result": 80}, {"measurement": "Plant response rating (scale of 0 to 100), Blackgrass", "setting": "[8]; [17]", "result": 20}, {"measurement": "Plant response rating, Blackgrass", "setting": "[8]; 62 g ai/ha", "result": 50}, {"measurement": "Plant response rating, Blackgrass", "setting": "[8]; 125 g ai/ha", "result": 80}, {"measurement": "Plant response rating, Blackgrass", "setting": "[8]; 250 g ai/ha", "result": 90}, {"measurement": "Plant response rating (scale of 0 to 100), Soybean", "setting": "soybean (Glycine max); [17]", "result": 5}, {"measurement": "Plant response rating, Soybean", "setting": "soybean (Glycine max); 250 g ai/ha, scale 0 to 100, 0 no effect, 100 complete control", "result": 15}, {"measurement": "Plant response rating (scale of 0 to 100), Galium", "setting": "[9]; [17]", "result": 80}, {"measurement": "Plant response rating, Galium", "setting": "[9]; 62 g ai/ha", "result": 85}, {"measurement": "Plant response rating, Galium", "setting": "[9]; 125 g ai/ha", "result": 90}, {"measurement": "Plant response rating, Galium", "setting": "[9]; 250 g ai/ha", "result": 98}, {"measurement": "Plant response rating (scale of 0 to 100), Wheat", "setting": "[10]; [17]", "result": 20}, {"measurement": "Plant response rating, Wheat", "setting": "[10]; 62 g ai/ha", "result": 70}, {"measurement": "Plant response rating, Wheat", "setting": "[10]; 125 g ai/ha", "result": 80}, {"measurement": "Plant response rating, Wheat", "setting": "[10]; 250 g ai/ha", "result": 95}, {"measurement": "Plant response rating (scale of 0 to 100), Nutsedge, Yellow", "setting": "[11]; [17]", "result": 0}, {"measurement": "Plant response rating, Nutsedge, Yellow", "setting": "[11]; 62 g ai/ha", "result": 0}, {"measurement": "Plant response rating, Nutsedge, Yellow", "setting": "[11]; 125 g ai/ha", "result": 0}, {"measurement": "Plant response rating, Nutsedge, Yellow", "setting": "[11]; 250 g ai/ha", "result": 0}, {"measurement": "Plant response rating (scale of 0 to 100), Velvetleaf", "setting": "[12]; [17]", "result": 15}, {"measurement": "Plant response rating, Velvetleaf", "setting": "[12]; 62 g ai/ha", "result": 5}, {"measurement": "Plant response rating, Velvetleaf", "setting": "[12]; 125 g ai/ha", "result": 55}, {"measurement": "Plant response rating, Velvetleaf", "setting": "[12]; 250 g ai/ha", "result": 65}, {"measurement": "Plant response rating (scale of 0 to 100), Pigweed", "setting": "[13]; [17]", "result": 10}, {"measurement": "Plant response rating, Pigweed", "setting": "[13]; 62 g ai/ha", "result": 25}, {"measurement": "Plant response rating, Pigweed", "setting": "[13]; 125 g ai/ha", "result": 60}, {"measurement": "Plant response rating, Pigweed", "setting": "[13]; 250 g ai/ha", "result": 55}, {"measurement": "Plant response rating (scale of 0 to 100), Barnyardgrass", "setting": "[14]; [17]", "result": 90}, {"measurement": "Plant response rating, Barnyardgrass", "setting": "[14]; 62 g ai/ha", "result": 95}, {"measurement": "Plant response rating, Barnyardgrass", "setting": "[14]; 125 g ai/ha", "result": 98}, {"measurement": "Plant response rating, Barnyardgrass", "setting": "[14]; 250 g ai/ha", "result": 100}, {"measurement": "Plant response rating (scale of 0 to 100), Waterhemp", "setting": "[15]; [17]", "result": 60}, {"measurement": "Plant response rating, Waterhemp", "setting": "[15]; 62 g ai/ha", "result": 70}, {"measurement": "Plant response rating, Waterhemp", "setting": "[15]; 125 g ai/ha", "result": 80}, {"measurement": "Plant response rating, Waterhemp", "setting": "[15]; 250 g ai/ha", "result": 80}, {"measurement": "Plant response rating, Sedge, Umbrella", "setting": "[16]; 16 g ai/ha, scale 0 to 100 (0 no effect, 100 complete control), 13 to 15 d", "result": 0}, {"measurement": "Plant response rating (scale of 0 to 100), Sedge, Umbrella", "setting": "[16]; 31 g ai/ha", "result": 0}, {"measurement": "Plant response rating (scale of 0 to 100), Sedge, Umbrella", "setting": "[16]; 62 g ai/ha", "result": 0}, {"measurement": "Plant response rating (scale of 0 to 100), Sedge, Umbrella", "setting": "[16]; 125 g ai/ha", "result": 0}]}]}
